# In patent US20150157575A1, “Pharmaceutical Formulations Comprising Vilazodone” (Forest Laboratories Holdings Ltd., priority 2013, published 2015):
# Like-named read-outs stand apart in the source and are kept apart here.
# What was measured:
# CYP3A4 = CYP3A4 (Homo sapiens, UniProt P08684); settings: in vitro studies; cited from earlier work
# [1] = molecular target: norepinephrine reuptake site (Homo sapiens, UniProt P23975); settings: cited from earlier work
# [2] = Study 1: single-dose pharmacokinetics in mild or moderate hepatic impairment and matched healthy controls; assay type: in vivo, human; settings: for AUC(0-inf) / AUC(0-t) / Cmax / half-life / Tmax: both sexes, human, plasma, po, 20 mg, vilazodone 20 mg single oral dose
# Protocol: The pharmacokinetics, tolerability, and safety of vilazodone were investigated in two separate trials involving participants with hepatic impairment, compared with healthy controls. An Open-label, parallel-group, single-dose pharmacokinetic studies, a single, oral dose of vilazodone (20 mg with increased hardness) was administered to participants with mild, moderate, or severe hepatic impairment or individually matched controls. Outcomes included pharmacokinetic parameters and safety (vital signs, clinical laboratory evaluations, ECG, and adverse events [AEs]). Plasma samples were analyzed using validated LC/MS/MS methods.
# Data from two, open-label, parallel-group, single-dose pharmacokinetic studies investigated single-dose vilazodone (20 mg with increased hardness) in participants with hepatic impairment and normal hepatic function. The first study (Study 1) included participants with mild or moderate hepatic impairment and healthy controls. The second study (Study 2) included participants with severe hepatic impairment or healthy participants. These studies were both designed in accordance with the FDA guidance for evaluation of pharmacokinetics in the presence of hepatic impairment. The differences between the study protocols were minimal, so both methodologies are described together, with any differences noted below.
# Participants were men and women, 18 to 70 years of age, with a body mass index (BMI) of 18-42 kg/m^2. Women were not pregnant or breastfeeding and agreed to utilize a medically accepted form of contraception during the study (as did men in Study 2). In Study 2, participants were also required to be non-smokers or light smokers (fewer than 10 cigarettes per day; there was no stipulation in Study 1) and to have a sitting pulse rate of 50-100 bpm at screening and prior to dosing on Day 1. […] Each healthy control was matched with a hepatically impaired participant. Control participants in the Study 1 were matched with a hepatically impaired individual according to age (±10 years), sex, and BMI (±15%). Control participants in Study 2 were matched with a hepatically impaired individual according to age (±5 years), sex, and weight (±10%).
# Participants with hepatic dysfunction were classified according to the Child-Pugh hepatic dysfunction staging system as having mild (5-6 points) or moderate (7-9 points) hepatic impairment (Study 1), or severe impairment (10-15 points; Study 2). Participants with severe impairment also had chronic liver disease and/or compensated cirrhosis, as evidenced by liver biopsy, computerized tomography or ultrasonic evidence of hepatic fibrosis, clinical evidence of chronic liver disease, or a colloid shift on a liver-spleen scan. Exclusion criteria included the following: a clinical diagnosis or history of depression; treatment with antidepressants, anxiolytics, psychoactive medications (including herbal supplements), other serotonergic drugs, or drugs that inhibit CYP3A4 (eg, ketoconazole, diltiazem, macrolide antibiotics); a hypersensitivity to vilazodone or other SSRIs or 5-HT agonists; history or evidence of alcohol or substance abuse, cancer, human immunodeficiency virus, hepatitis B (Study 1 and healthy controls, both studies) hepatitis C (healthy controls, both studies), or other clinically significant illnesses or medical conditions. Participants with severe hepatic impairment were excluded if they had bleeding diathesis, advanced ascites requiring large-volume paracentesis within 1 week of dosing, esophageal bleeding within the previous 8 weeks, history of portosystemic shunt or hepatic transplant, or evidence of hepatic encephalopathy, hepatorenal syndrome, or other evidence of rapid hepatic deterioration.
# Participants were not allowed to have previously taken vilazodone or participated in any clinical investigation requiring repeated blood draws within 60 days of dosing, or donated blood or plasma within 60 or 30 days, respectively.
# [3] = Mild impairment/control, 20 mg single dose
# [4] = Moderate impairment/control, 20 mg single dose
# [5] = Control matched to Mild Impairment n = 8
# [6] = Control matched to Moderate Impairment n = 8
# CYP3A4, sequence (P08684 whole entry): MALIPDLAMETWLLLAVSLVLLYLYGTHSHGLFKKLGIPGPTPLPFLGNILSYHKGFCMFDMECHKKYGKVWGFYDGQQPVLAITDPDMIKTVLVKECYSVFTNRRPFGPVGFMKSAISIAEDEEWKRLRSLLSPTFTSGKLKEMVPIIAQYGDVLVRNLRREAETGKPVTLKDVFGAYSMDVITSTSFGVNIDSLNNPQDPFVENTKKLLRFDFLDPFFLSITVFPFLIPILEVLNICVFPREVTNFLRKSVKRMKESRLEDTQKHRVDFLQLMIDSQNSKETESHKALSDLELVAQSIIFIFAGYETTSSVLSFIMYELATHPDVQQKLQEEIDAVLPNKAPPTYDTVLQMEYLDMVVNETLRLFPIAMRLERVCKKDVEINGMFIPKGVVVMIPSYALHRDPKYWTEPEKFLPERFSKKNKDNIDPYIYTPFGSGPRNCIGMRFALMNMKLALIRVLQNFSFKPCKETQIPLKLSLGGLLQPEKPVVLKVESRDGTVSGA
# norepinephrine reuptake site, sequence (P23975 whole entry): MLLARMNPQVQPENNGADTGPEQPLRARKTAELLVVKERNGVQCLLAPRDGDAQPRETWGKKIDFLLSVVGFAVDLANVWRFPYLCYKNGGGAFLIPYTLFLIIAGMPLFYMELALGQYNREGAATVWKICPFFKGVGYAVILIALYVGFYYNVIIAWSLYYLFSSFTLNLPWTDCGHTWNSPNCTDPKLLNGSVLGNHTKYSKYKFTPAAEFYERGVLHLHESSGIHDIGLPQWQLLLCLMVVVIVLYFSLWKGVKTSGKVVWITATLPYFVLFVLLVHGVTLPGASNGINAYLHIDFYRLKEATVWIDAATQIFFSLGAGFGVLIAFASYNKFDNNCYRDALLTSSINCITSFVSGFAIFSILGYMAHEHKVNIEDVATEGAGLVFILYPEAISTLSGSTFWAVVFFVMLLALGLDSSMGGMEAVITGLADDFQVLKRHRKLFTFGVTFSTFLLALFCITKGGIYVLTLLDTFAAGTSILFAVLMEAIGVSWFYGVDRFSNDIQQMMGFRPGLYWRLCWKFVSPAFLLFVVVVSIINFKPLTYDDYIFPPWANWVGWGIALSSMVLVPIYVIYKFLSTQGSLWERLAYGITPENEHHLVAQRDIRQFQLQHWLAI
smiles,measurement,setting,value
"Cl.N#Cc1ccc2[nH]cc(CCCCN3CCN(c4ccc5oc(C(N)=O)cc5c4)CC3)c2c1 [Vilazodone, 1-[4-(5-cyanoindol-3-yl)butyl]-4-(2-carbamoyl-benzofuran-5-yl)-piperazine hydrochloride]",inhibitor or inducer of CYP3A4,CYP3A4,not an inhibitor or inducer
same,binding to norepinephrine reuptake site,[1],not
same,"AUC0-t, Ratio of Geometric Means (%)",[2]; [3],97.7%
same,"AUC0-∞, Ratio of Geometric Means (%)",[2]; [3],98.0%
same,"Cmax, Ratio of Geometric Means (%)",[2]; [3],97.8%
same,"AUC0-t, Ratio of Geometric Means (%)",[2]; [4],89.5%
same,"AUC0-∞, Ratio of Geometric Means (%)",[2]; [4],90.5%
same,"Cmax, Ratio of Geometric Means (%)",[2]; [4],97.2%
same,AUC(0-inf),[2]; [5],945 ± 169 ng·h/mL
same,AUC(0-t),[2]; [5],898 ± 168 ng·h/mL
same,Cmax,[2]; [5],43.1 ± 13.1 ng/mL
same,half-life,[2]; [5],1550 ± 354 min
same,Tmax,"[2]; Control matched to Mild Impairment n = 8, read-out: Tmax (mean)",5 ± 1.5 h
same,Tmax,"[2]; Control matched to Mild Impairment n = 8, read-out: Tmax, Median",5 h
same,AUC(0-inf),[2]; [6],809 ± 231 ng·h/mL
same,AUC(0-t),[2]; [6],768 ± 229 ng·h/mL
same,Cmax,[2]; [6],35.8 ± 10.7 ng/mL
same,half-life,[2]; [6],1520 ± 330 min
same,Tmax,"[2]; Control matched to Moderate Impairment n = 8, read-out: Tmax (mean)",4.9 ± 0.84 h
same,Tmax,"[2]; Control matched to Moderate Impairment n = 8, read-out: Tmax, Median",5 h
same,AUC(0-inf),[2]; Mild Impairment n = 8,1030 ± 506 ng·h/mL
same,AUC(0-t),[2]; Mild Impairment n = 8,984 ± 505 ng·h/mL
same,Cmax,[2]; Mild Impairment n = 8,44.1 ± 16.5 ng/mL
same,half-life,[2]; Mild Impairment n = 8,1840 ± 492 min
same,Tmax,"[2]; Mild Impairment n = 8, read-out: Tmax (mean)",4.6 ± 1.6 h
same,Tmax,"[2]; Mild Impairment n = 8, read-out: Tmax, Median",4.5 h
same,AUC(0-inf),[2]; Moderate Impairment n = 8,727 ± 196 ng·h/mL
same,AUC(0-t),[2]; Moderate Impairment n = 8,683 ± 190 ng·h/mL
same,Cmax,[2]; Moderate Impairment n = 8,34.2 ± 8.2 ng/mL
same,half-life,[2]; Moderate Impairment n = 8,1760 ± 684 min
same,Tmax,"[2]; Moderate Impairment n = 8, read-out: Tmax (mean)",4.1 ± 1.8 h
same,Tmax,"[2]; Moderate Impairment n = 8, read-out: Tmax, Median",4 h
same,mean recovery of unchanged vilazodone in urine over 96 hours,"[2]; healthy participants and mild and moderate hepatic impairment, 20 mg single dose",≤ 1.3 % of the dose
